One assay has as its target T1, GRK2 (Homo sapiens, UniProt P25098).
T1 sequence (P25098 1-689): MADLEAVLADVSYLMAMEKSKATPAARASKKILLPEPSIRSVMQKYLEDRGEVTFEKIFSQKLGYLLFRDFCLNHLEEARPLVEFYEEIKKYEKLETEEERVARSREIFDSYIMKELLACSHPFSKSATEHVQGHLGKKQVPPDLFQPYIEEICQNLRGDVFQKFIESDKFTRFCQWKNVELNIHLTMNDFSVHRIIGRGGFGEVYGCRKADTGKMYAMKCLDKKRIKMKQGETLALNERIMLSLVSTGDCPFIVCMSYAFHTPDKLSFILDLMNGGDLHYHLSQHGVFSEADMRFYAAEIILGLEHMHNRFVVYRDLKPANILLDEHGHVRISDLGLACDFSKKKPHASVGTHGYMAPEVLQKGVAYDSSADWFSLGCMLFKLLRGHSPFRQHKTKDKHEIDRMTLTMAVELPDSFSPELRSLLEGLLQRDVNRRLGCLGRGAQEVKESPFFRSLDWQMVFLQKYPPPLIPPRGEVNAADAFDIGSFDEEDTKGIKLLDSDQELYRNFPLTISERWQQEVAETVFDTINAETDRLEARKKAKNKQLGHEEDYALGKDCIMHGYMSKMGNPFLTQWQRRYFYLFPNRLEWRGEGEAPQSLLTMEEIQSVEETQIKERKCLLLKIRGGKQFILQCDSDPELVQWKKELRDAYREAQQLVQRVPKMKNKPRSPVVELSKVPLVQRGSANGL
In words: in vitro kinase assay (Z-LYTE; ADP-Glo). Format: biochemical. In general terms: In ADP-Glo the light output rises with the ADP produced.

The target of assay [1] is T2, GRK3 (G protein-coupled receptor kinase 3) (Homo sapiens, UniProt P35626).
T2 construct: recombinant GRK3 protein
T2 sequence (P35626 1-688): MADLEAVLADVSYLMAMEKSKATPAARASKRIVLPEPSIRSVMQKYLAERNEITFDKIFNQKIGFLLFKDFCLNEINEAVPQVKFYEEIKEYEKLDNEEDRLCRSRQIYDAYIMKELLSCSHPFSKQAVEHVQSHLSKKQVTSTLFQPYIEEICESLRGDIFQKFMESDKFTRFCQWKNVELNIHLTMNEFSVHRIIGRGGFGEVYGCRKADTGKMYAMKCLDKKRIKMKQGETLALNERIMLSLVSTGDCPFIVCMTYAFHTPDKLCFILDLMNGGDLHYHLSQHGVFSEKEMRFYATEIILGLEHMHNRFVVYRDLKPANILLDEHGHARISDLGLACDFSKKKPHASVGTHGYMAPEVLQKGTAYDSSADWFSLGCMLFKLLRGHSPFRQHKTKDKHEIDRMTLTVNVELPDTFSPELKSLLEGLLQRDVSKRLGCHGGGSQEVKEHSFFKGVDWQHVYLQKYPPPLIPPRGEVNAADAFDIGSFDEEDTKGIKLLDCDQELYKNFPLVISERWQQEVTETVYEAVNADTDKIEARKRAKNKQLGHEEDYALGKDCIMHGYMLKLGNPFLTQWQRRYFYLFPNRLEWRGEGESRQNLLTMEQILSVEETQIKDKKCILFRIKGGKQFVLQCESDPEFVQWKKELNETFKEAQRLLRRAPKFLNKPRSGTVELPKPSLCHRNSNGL
In words: in vitro kinase assay (Z-LYTE; ADP-Glo). The assay is classed as biochemical.

In the case of `Cn1cc(-c2[nH]c3cc(NC(=O)[C@H](N)C4CCCCC4)cc4c3c2C=NNC4=O)cn1` [LD2], the IC50 worked out at 1950 nM against GRK2 and 82 nM in assay [1].

Broadly, the IC50 is the concentration needed to halve the response being measured. A lower IC50 goes with greater potency in that assay.

The record behind these values is paper PMC9396876, “GRK3 is a poor prognosticator and serves as a therapeutic target in advanced gastric adenocarcinoma” (Journal of Experimental & Clinical Cancer Research : CR, 2022).
